Measurements from patent publication US11000033B2, “Ketone or oxime compound, and herbicide” (NISSAN CHEMICAL CORPORATION, priority 2014, dated 2021).

Key:
Type in all cases: in vivo
Monochoria vaginalis = assay: Test Example 1: herbicidal activity, application before weed generation in submerged conditions (symbol C); details: application herbicide amount 320 g/ha
Summary of the method: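 Pre-emergence, paddy conditions: emulsifiable formulation diluted in water, dosed onto floodwater (4 cm depth) on sowing day. Alluvial soil; weeds sown mixed; rice transplanted at 2.5-leaf stage. Greenhouse 25–30 °C, 3 wk. Score 0–5 (5 = ≥90% kill, 0 = ≤5%).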

[1] = tested on: Echinochloa oryzacola Vasing.; assay: Test Example 2: herbicidal activity, application during weed generation in submerged conditions (symbol A); details: Table 23; application herbicide amount 320 g/ha; grade 0-5 by criteria of Test Example 1
Summary of the method: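 Submerged alluvial soil (4 cm) sown with mixed seed; greenhouse 25–30° C. 1–2 leaf: diluted emulsion onto water surface, preset dose. Visual score, 3 wk.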

Setaria viridis [2] = assay: Test Example 4: herbicidal effect by soil treatment (symbol G); details: application herbicide amount 320 g/ha
Summary of the method: (§1)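 Seeds were sown in sterilized diluvial soil, covered with about 1.5 cm of soil, and the soil surface was sprayed with a water-diluted emulsion of the compound at a predetermined rate. Plants grew in a greenhouse at 25° C. to 30° C.; effects were scored visually 3 weeks after application.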

Apera spica-venti = assay: Test Example 4: herbicidal effect by soil treatment (symbol L); details: application herbicide amount 320 g/ha
Summary of the method: as §1

Amaranthus retroflexus = assay: Test Example 4: herbicidal effect by soil treatment (symbol N); details: application herbicide amount 320 g/ha
Summary of the method: as §1

Stellaria media = assay: Test Example 4: herbicidal effect by soil treatment (symbol P); details: application herbicide amount 320 g/ha
Summary of the method: as §1

Galium spurium = assay: Test Example 4: herbicidal effect by soil treatment (symbol Q); details: application herbicide amount 320 g/ha
Summary of the method: as §1

Setaria viridis [3] = assay: Test Example 5: herbicidal effect by foliage application, plastic box (symbol G); details: 320 g/ha, 3 weeks after application
Summary of the method: (§2)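 Greenhouse foliar test: seedlings at 14 days, grown 25° C. to 30° C. in sterilized diluvial soil; compound applied as an aqueous dilution of an emulsion; response read 3 weeks after spraying.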

Avena fatua = assay: Test Example 5: herbicidal effect by foliage application, plastic box (symbol I); details: 320 g/ha, 3 weeks after application
Summary of the method: as §2

Chenopodium album = assay: Test Example 5: herbicidal effect by foliage application, plastic box (symbol O); details: 320 g/ha, 3 weeks after application
Summary of the method: as §2

rice plant = assay: Test Example 5: effect on crop by foliage application, plastic box (symbol b); details: 320 g/ha, 3 weeks after application
Summary of the method: (§3)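 In a plastic box 7 cm deep filled with sterilized diluvial soil, seeds of crops and weeds such as Digitaria ciliaris, Avena fatua and Amaranthus retroflexus are sown in spots and covered with about 1.5 cm of soil before greenhouse growth at 25–30° C.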

beet = assay: Test Example 5: effect on crop by foliage application, plastic box (symbol f); details: 320 g/ha, 3 weeks after application
Summary of the method: as §3

Compound | Herbicidal effect grade, C: Monochoria vaginalis (Monochoria vaginalis) | Herbicidal effect grade, A: Echinochloa oryzacola Vasing. [1] | G (Setaria viridis) herbicidal effect grade (Setaria viridis [2]) | L (Apera spica-venti) herbicidal effect grade (Apera spica-venti) | N (Amaranthus retroflexus) herbicidal effect grade (Amaranthus retroflexus) | P (Stellaria media) herbicidal effect grade (Stellaria media) | Q (Galium spurium) herbicidal effect grade (Galium spurium) | G: Setaria viridis, herbicidal effect grade (Setaria viridis [3]) | I: Avena fatua, herbicidal effect grade (Avena fatua) | O: Chenopodium album, herbicidal effect grade (Chenopodium album) | b: directly sowed rice plant, effect on crop grade (rice plant) | f: beet, effect on crop grade (beet)
CC(CC1CC(O)=C(c2c(C)cc(C)cc2C)C1=O)=NOCC(=O)N1CCOCC1 (centres unmarked) [1-025] | 0 (Herbicidal ratio of 5% or lower (almost no effect)) | 1 (Herbicidal ratio of 5% or higher and lower than 20%) | 5 (Herbicidal ratio of 90% or more (almost completely withered)) | 5 (Herbicidal ratio of 90% or more (almost completely withered)) | 0 (Herbicidal ratio of 5% or lower (almost no effect)) | 0 (Herbicidal ratio of 5% or lower (almost no effect)) | 0 (Herbicidal ratio of 5% or lower (almost no effect)) | 4 (Herbicidal ratio of 70% or higher and lower than 90%) | 5 (Herbicidal ratio of 90% or more (almost completely withered)) | 4 (Herbicidal ratio of 70% or higher and lower than 90%) | 4 (Herbicidal ratio of 70% or higher and lower than 90%) | 0 (Herbicidal ratio of 5% or lower (almost no effect))
CC(CC1CC(O)=C(c2c(C)cc(C)cc2C)C1=O)=NOCC(C)O (centres unmarked) [1-027] | 3 (Herbicidal ratio of 40% or higher and lower than 70%) | 4 (Herbicidal ratio of 70% or higher and lower than 90%) | 3 (Herbicidal ratio of 40% or higher and lower than 70%) | 5 (Herbicidal ratio of 90% or more (almost completely withered)) | 0 (Herbicidal ratio of 5% or lower (almost no effect)) |  | 0 (Herbicidal ratio of 5% or lower (almost no effect)) | 5 (Herbicidal ratio of 90% or more (almost completely withered)) | 5 (Herbicidal ratio of 90% or more (almost completely withered)) | 1 (Herbicidal ratio of 5% or higher and lower than 20%) | 5 (Herbicidal ratio of 90% or more (almost completely withered)) | 0 (Herbicidal ratio of 5% or lower (almost no effect))
CON=C(C)CC1CC(OCC#C[Si](C)(C)C)=C(c2c(C)cc(C)cc2C)C1=O (centres unmarked) [1-031] | 2 (Herbicidal ratio of 20% or higher and lower than 40%) | 5 (Herbicidal ratio of 90% or more (almost completely withered)) | 0 (Herbicidal ratio of 5% or lower (almost no effect)) | 0 (Herbicidal ratio of 5% or lower (almost no effect)) | 0 (Herbicidal ratio of 5% or lower (almost no effect)) | 0 (Herbicidal ratio of 5% or lower (almost no effect)) | 0 (Herbicidal ratio of 5% or lower (almost no effect)) | 1 (Herbicidal ratio of 5% or higher and lower than 20%) | 3 (Herbicidal ratio of 40% or higher and lower than 70%) | 0 (Herbicidal ratio of 5% or lower (almost no effect)) | 3 (Herbicidal ratio of 40% or higher and lower than 70%) | 0 (Herbicidal ratio of 5% or lower (almost no effect))
COCC(CC1CC(O)=C(c2c(C)cc(C)cc2C)C1=O)=NOC (centres unmarked) [1-040] | 0 (Herbicidal ratio of 5% or lower (almost no effect)) | 4 (Herbicidal ratio of 70% or higher and lower than 90%) | 4 (Herbicidal ratio of 70% or higher and lower than 90%) | 5 (Herbicidal ratio of 90% or more (almost completely withered)) | 0 (Herbicidal ratio of 5% or lower (almost no effect)) |  | 0 (Herbicidal ratio of 5% or lower (almost no effect)) | 4 (Herbicidal ratio of 70% or higher and lower than 90%) | 4 (Herbicidal ratio of 70% or higher and lower than 90%) | 0 (Herbicidal ratio of 5% or lower (almost no effect)) | 5 (Herbicidal ratio of 90% or more (almost completely withered)) | 0 (Herbicidal ratio of 5% or lower (almost no effect))
CON=C(C)CC1CC(OC(=O)COc2ccccc2)=C(c2c(C)cc(C)cc2C)C1=O (centres unmarked) [1-043] | 2 (Herbicidal ratio of 20% or higher and lower than 40%) | 5 (Herbicidal ratio of 90% or more (almost completely withered)) | 5 (Herbicidal ratio of 90% or more (almost completely withered)) | 5 (Herbicidal ratio of 90% or more (almost completely withered)) | 4 (Herbicidal ratio of 70% or higher and lower than 90%) |  | 0 (Herbicidal ratio of 5% or lower (almost no effect)) | 5 (Herbicidal ratio of 90% or more (almost completely withered)) | 5 (Herbicidal ratio of 90% or more (almost completely withered)) | 2 (Herbicidal ratio of 20% or higher and lower than 40%) | 5 (Herbicidal ratio of 90% or more (almost completely withered)) | 3 (Herbicidal ratio of 40% or higher and lower than 70%)
CON=C(CC1CC(O)=C(c2c(C)cc(C)cc2C)C1=O)C1CC1 (centres unmarked) [1-046] | 4 (Herbicidal ratio of 70% or higher and lower than 90%) | 5 (Herbicidal ratio of 90% or more (almost completely withered)) | 4 (Herbicidal ratio of 70% or higher and lower than 90%) | 5 (Herbicidal ratio of 90% or more (almost completely withered)) | 2 (Herbicidal ratio of 20% or higher and lower than 40%) |  | 0 (Herbicidal ratio of 5% or lower (almost no effect)) | 5 (Herbicidal ratio of 90% or more (almost completely withered)) | 5 (Herbicidal ratio of 90% or more (almost completely withered)) | 2 (Herbicidal ratio of 20% or higher and lower than 40%) | 5 (Herbicidal ratio of 90% or more (almost completely withered)) | 0 (Herbicidal ratio of 5% or lower (almost no effect))
CON=C(C)C(c1ccc(F)cc1)C1CC(O)=C(c2c(C)cc(C)cc2C)C1=O (centres unmarked) [1-049] | 0 (Herbicidal ratio of 5% or lower (almost no effect)) | 0 (Herbicidal ratio of 5% or lower (almost no effect)) | 0 (Herbicidal ratio of 5% or lower (almost no effect)) | 0 (Herbicidal ratio of 5% or lower (almost no effect)) | 0 (Herbicidal ratio of 5% or lower (almost no effect)) | 0 (Herbicidal ratio of 5% or lower (almost no effect)) | 0 (Herbicidal ratio of 5% or lower (almost no effect)) | 0 (Herbicidal ratio of 5% or lower (almost no effect)) | 0 (Herbicidal ratio of 5% or lower (almost no effect)) | 0 (Herbicidal ratio of 5% or lower (almost no effect)) | 0 (Herbicidal ratio of 5% or lower (almost no effect)) | 0 (Herbicidal ratio of 5% or lower (almost no effect))
